# Like-named read-outs stand apart in the source and are kept apart here.
# Columns and labels:
# [1] = system: Scopolamine Induced Memory Deficit; format: in vivo, mice
# Description: In this assay mice are tested for their ability to remember an unpleasant stimulus for a period of 24 hours. A mouse is placed in a chamber that contains a dark compartment; a strong incandescent light drives it to the dark compartment, where an electric shock is administered through metal plates on the floor. The animal is removed from the testing apparatus and tested again, 24 hours later, for the ability to remember the electric shock.
# If scopolamine, an anticholinergic that is known to cause memory impairment, is administered before an animal's initial exposure to the test chamber, the animal re-enters the dark compartment shortly after being placed in the test chamber 24 hours later. This effect of scopolamine is blocked by an active test compound, resulting in a greater interval before-re-entry into the dark compartment.
# The results for an active compound are expressed as the percent of a group of animals in which the effect of scopolamine is blocked, as manifested by an increased interval between being placed in the test chamber and re-entering the dark compartment.
# Results of this assay for some of the compounds of this invention and those for tacrine and pilocarpine (reference compounds) are presented in Table 2.
# [2] = target: T1, Brain AChE (acetylcholinesterase, rat striatum) (Rattus norvegicus, UniProt P37136); experiment: biochemical; conditions: rat striatum homogenate; 5 mM acetylthiocholine; pH 7.2; 10 min preincubation at 37° C.; read-out: Inhibitory Concentration, Brain AChE
# T1 construct: corpora striata dissected free, weighed and homogenized in 19 volumes; from tissue; host or cells: corpora striata of male Wistar rats, crude homogenate
# T1 sequence (P37136 32-614): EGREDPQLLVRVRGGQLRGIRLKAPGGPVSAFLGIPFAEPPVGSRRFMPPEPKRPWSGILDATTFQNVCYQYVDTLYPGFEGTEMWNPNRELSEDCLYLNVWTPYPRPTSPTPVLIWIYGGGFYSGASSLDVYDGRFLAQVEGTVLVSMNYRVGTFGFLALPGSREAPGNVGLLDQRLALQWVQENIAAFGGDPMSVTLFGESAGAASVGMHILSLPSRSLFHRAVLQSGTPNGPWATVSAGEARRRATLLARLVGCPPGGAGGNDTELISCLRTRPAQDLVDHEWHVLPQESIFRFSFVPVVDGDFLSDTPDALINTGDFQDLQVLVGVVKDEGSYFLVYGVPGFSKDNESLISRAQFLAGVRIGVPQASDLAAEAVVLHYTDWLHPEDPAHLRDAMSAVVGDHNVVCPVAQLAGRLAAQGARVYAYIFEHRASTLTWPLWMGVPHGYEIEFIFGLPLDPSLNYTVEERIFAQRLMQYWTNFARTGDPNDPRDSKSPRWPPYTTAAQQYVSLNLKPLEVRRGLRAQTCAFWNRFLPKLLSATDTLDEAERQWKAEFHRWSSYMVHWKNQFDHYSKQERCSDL
# Source text: Cholinesterases are found throughout the body, both in the brain and in serum. However, only brain acetylcholinesterase (AChE) distribution is correlated with central cholinergic innervation. […] We have determined in vitro inhibition of acetylcholinesterase activity in rat striatum according to the method described below.
# In Vitro Inhibition of Acetylcholinesterase Activity in Rat Striatum
# The method described below was used in this invention for assaying anticholinesterase activity. This is a modification of the method of Ellman et al., Biochem. Pharmacol. 7, 88 (1961).
# 1. 0.05M Phosphate buffer, pH 7.2
# (a) 6.85 g NaH2 PO4 .cndot.H2 O/100 ml distilled H2 O
# (c) add (a) to (b) until pH reaches 7.2
# 4. A 2 mM stock solution of the test drug is made up in a suitable solvent and q.s. to volume with 0.5 mM DTNB (reagent 3). Drugs are serially diluted (1:10) such that the final concentration (in cuvette) is 10^-4 M and screened for activity. If active, IC50 values are determined from the inhibitory activity of subsequent concentrations.
# Enzyme activity is measured with the Beckman DU-50 spectrophotometer. This method can be used for IC50 determinations and for measuring kinetic constants.
# This program also calculates the rate of absorbance change for each cuvette.
# Substrate concentration is 10 mM diluted 1:2 in assay yielding final concentration of 5 mM.
# norepinephrine uptake = experiment: 3H-Norepinephrine Uptake in Rat Whole Brain Synaptosomes; format: biochemical; conditions: 50 nM 3H-NE, 37° C., 5 minutes, read-out: IC50 (3H-norepinephrine uptake inhibition)
# Description: ^3 H-Norepinephrine Uptake in Rat Whole Brain Synaptosomes
# This assay is used as a biochemical screen for compounds that enhance adrenergic mechanism by blocking norepinephrine uptake.
# A. Animals: Male CR Wistar rats (100-125 g).
# 1. Krebs-Henseleit Bicarbonate Buffer, pH 7.4 (KHBB). Make a 1 liter batch, containing the following salts.
# 2. 0.32M Sucrose: 21.9 g of sucrose, Q.S. to 200 ml.
# 3. A 0.1 mM stock solution of L(-)-Norepinephrine bitartrate is made up in 0.01N HCl. This is used to dilute the specific activity of radiolabeled NE.
# 4. Levo-[Ring-2,5,6-^3 H]-Norepinephrine (40-50 Ci/mmol) is obtained from New England Nuclear. The final desired concentration of ^3 H-NE in the assay is 50 nM. The dilution factor is 0.8; therefore the KHBB is made up to contain 62.5 nM [^3 H]-NE. Add to 100 ml of KHBB:
# 5. For most assays, a 1 mM stock solution of the test compound is made up in suitable solvent and serially diluted such that the final concentration in the assay ranges from 2×10^-8 to 2×10^-5 M. Seven concentrations are used for each assay. Higher or lower concentrations may be used depending on the potency of the test compound.
# Male Wistar rats are decapitated and brains rapidly removed. Either whole brain minus cerebella or hypothalamus is weighed and homogenized in 9 volumes of ice-cold 0.32M sucrose using a Potter-Elvejhem homogenizer. Homogenization should be done with 4-5 up and down strokes at medium speeds to minimize synaptosome lysis. The homogenate is centrifuged at 1000 g for 10 min at 0°-4° C. The supernatant (S1) is decanted and is used for uptake experiments.
# 800 μl: KHBB containing [^3 H]-NE
# 20 μl: Vehicle or appropriate drug concentration
# 200 μl: Tissue suspension
# Tubes are incubated at 37° C. under a 95% O2 /5% CO2 atmosphere for 5 minutes. For each assay, 3 tubes are incubated with 20 μl of vehicle at 0° C. in an ice bath. After incubation all tubes are immediately centrifuged at 4000 g for 10 minutes. […] The tubes are vigorously vortexed, decanted into scintillation vials, and counted in 10 ml of Liquiscint scintillation counting cocktail. […]
compound,measurement,setting,value
"CNC(=O)Oc1ccc2c(ccn2N2CCOc3cnccc32)c1 [1-(Pyrido-[3,4-b]-1,4-oxazin-4-yl)-1H-indol'-5-yl methylcarbamate]",% of Animals with Scopolamine Induced Memory Deficit Reversal,"[1]; mice, 0.01 mg/kg of body weight, s.c., retest 24 hours",27%
same,% of Animals with Scopolamine Induced Memory Deficit Reversal,"[1]; mice, 0.03 mg/kg of body weight, s.c., retest 24 hours",20%
same,% of Animals with Scopolamine Induced Memory Deficit Reversal,"[1]; mice, 0.10 mg/kg of body weight, s.c., retest 24 hours",33%
same,IC50,[2],0.054 µM
"Cc1cn(N2CCOc3cnccc32)c2ccccc12 [4-(3-Methyl-1H-indol-1-yl)-pyrido[3,4-b]-1,4-oxazine]",IC50,norepinephrine uptake,6 µM
CN(C)CCC=C1c2ccccc2CCc2ccccc21 [Amitriptyline],IC50,norepinephrine uptake,7.7 µM
CNCCC=C1c2ccccc2CCc2ccccc21 [Nortriptyline],IC50,norepinephrine uptake,4 µM
"CC[C@@H]1C(=O)OC[C@@H]1Cc1cncn1C [Pilocarpine, reference compound]",% of Animals with Scopolamine Induced Memory Deficit Reversal,"[1]; mice, 5.0 mg/kg of body weight, s.c., retest 24 hours",13%
"Nc1c2c(nc3ccccc13)CCCC2 [Tacrine, reference compound]",% of Animals with Scopolamine Induced Memory Deficit Reversal,"[1]; mouse, in vivo, sc, 0.63 mg/kg",13%

# Source: patent publication US5214038A, “1-(pyrido[3,4-b]-1,4-oxazinyl-4-yl)-1H-indoles and intermediates for the preparation thereof” (priority 1991, dated 1993)
